Experimental data: patent US20240132431A1, “METHOD FOR ALKYLATING ACIDIC FUNCTIONAL GROUP” (Chugai Seiyaku Kabushiki Kaisha, priority 2021, published 2024)

Biological target: T1, Bcl-2 protein (Recombinant Human Bcl-2 Protein) (Homo sapiens, UniProt P10415)
T1 construct: purchased Novus NBP2-34889
Experiment: Binding evaluation of mixture library compounds to Bcl-2 using AS-MS (affinity selection mass spectrometry)
Details: for ASMS ratio (%) n = 1 / ASMS ratio (%) n = 2: ASMS Ratio(%)=(A−C)/B×100; for ASMS ratio (%) n = 1: replicate n = 1; for ASMS ratio (%) n = 2: replicate n = 2
How it was run: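 ASMS Ratio (%) was calculated as (A−C)/B×100, where A is the protein sample after SEC, B the protein-free sample without SEC and C the protein-free sample after SEC. Each compound was at […] in a 1200-member pool with 20 μM Bcl-2, incubated 1 h at 23° C.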

[1] = AS-MS on the mixture of 1200 library compounds
[2] = AS-MS, mixture of 1200 compounds, Bcl-2

T1 sequence (P10415 whole entry): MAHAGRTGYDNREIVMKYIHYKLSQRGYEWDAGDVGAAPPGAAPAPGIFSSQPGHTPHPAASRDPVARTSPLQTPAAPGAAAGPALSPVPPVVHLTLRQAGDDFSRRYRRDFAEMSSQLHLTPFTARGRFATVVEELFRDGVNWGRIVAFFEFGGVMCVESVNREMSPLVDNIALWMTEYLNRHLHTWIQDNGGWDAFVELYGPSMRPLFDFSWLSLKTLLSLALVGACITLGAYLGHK

Row | Compound | ASMS ratio (%) n = 1 [1] | ASMS ratio (%) n = 2 [1] | ASMS ratio (%) n = 2 (AS-MS, mixture library, Bcl-2) | other results
1 | CCOc1cccc(C#Cc2cncc(C(=O)N3CCN(c4ccc(C(=O)Nc5ccc(OC)cc5)cc4)CC3)c2)c1 [B1O031-01, 4-[4-[5-[2-(3-Ethoxyphenyl)ethynyl]pyridine-3-carbonyl]piperazin-1-yl]-N-(4-methoxyphenyl)benzamide] | −1.3% | −4.1% |  | 
2 | CCOc1cncc(C#Cc2cncc(C(=O)N3CCN(c4ccc(C(=O)NS(=O)(=O)CC56CC7CC(CC(C7)C5)C6)cc4)CC3)c2)c1 [B2A032-01, N-(1-Adamantylmethylsulfonyl)-4-[4-[5-[2-(5-ethoxypyridin-3-yl)ethynyl]pyridine-3-carbonyl]piperazin-1-yl]benzamide] |  |  | 0.0% | ASMS ratio (%) n = 1 (AS-MS, mixture library, Bcl-2): 0.0%
3 | CCOc1cncc(-c2ccccc2CN2CCN(c3ccc(C(=O)N(CC)CC)nn3)CC2)c1 [B4J072-01, 6-[4-[[2-(5-Ethoxypyridin-3-yl)phenyl]methyl]piperazin-1-yl]-N,N-diethylpyridazine-3-carboxamide] |  |  | 0.9% | ASMS ratio (%) n = 1 (AS-MS, mixture library, Bcl-2): −1.6%
4 | CCOc1cncc(-c2csc(CN3CCN(c4ccc(C(=O)NS(=O)(=O)C(C)(C)C)cc4)CC3)c2)c1 [B2L068-01, N-tert-Butylsulfonyl-4-[4-[[4-(5-ethoxypyridin-3-yl)thiophen-2-yl]methyl]piperazin-1-yl]benzamide] |  |  |  | ASMS ratio (%) (n = 1): 0.0%; ASMS ratio (%) (n = 2): 0.0%
5 | CCOc1cccc(-c2ccc(CN3CCN(c4ccc(C(=O)NS(=O)(=O)CC56CC7CC(CC(C7)C5)C6)cc4)CC3)c3ccccc23)c1 [B2A065-01, N-(1-Adamantylmethylsulfonyl)-4-[4-[[4-(3-ethoxyphenyl)naphthalen-1-yl]methyl]piperazin-1-yl]benzamide] |  |  | −2.9% | ASMS ratio (%) n = 1 (AS-MS, mixture library, Bcl-2): 10.5%
6 | 4-[4-[3-[4-(5-Ethoxypyridin-3-yl)pyrazol-1-yl]-5-(trifluoromethyl)benzoyl]piperazin-1-yl]-N-propylbenzamide [B1M031-01] |  |  |  | ASMS ratio (%) n = 1 [2]: 0.0%; ASMS ratio (%) n = 2 [2]: −2.4%
7 | CCOc1cccc(-c2cc(CN3CCN(c4ccc(C(=O)N(CC)CC)cc4)CC3)cc(OCC)c2)c1 [B4J055-01, 4-[4-[[3-Ethoxy-5-(3-ethoxyphenyl)phenyl]methyl]piperazin-1-yl]-N,N-diethylbenzamide] | −0.7% | 1.4% |  | 
8 | CCOc1cncc(-c2ccccc2CN2CCN(c3ccc(C(=O)N(CC)CC)cc3)CC2)c1 [B4J046-01] | 0.0% | 0.0% |  | 
9 | CCOc1cncc(-c2ccc(C(=O)N3CCN(c4ccc(C(=O)NS(=O)(=O)C(C)(C)C)cc4)CC3)c3ccccc23)c1 [B2L036-01, N-tert-Butylsulfonyl-4-[4-[4-(5-ethoxypyridin-3-yl)naphthalene-1-carbonyl]piperazin-1-yl]benzamide] |  |  |  | ASMS ratio (%) (n = 1): 0.0%; ASMS ratio (%) (n = 2): 0.0%
10 | CCOc1cccc(-c2cc(CN3CCN(c4ccc(C(=O)Nc5ccc(OC)cc5)cc4)CC3)cc(OCC)c2)c1 [B1O055-01] | 3.0% | −4.2% |  | 
11 | CCOc1cncc(C#Cc2ccccc2C(=O)N2CCN(c3ccc(C(=O)Nc4ccc(OC)cc4)nn3)CC2)c1 [B1O008-01, 6-[4-[2-[2-(5-Ethoxypyridin-3-yl)ethynyl]benzoyl]piperazin-1-yl]-N-(4-methoxyphenyl)pyridazine-3-carboxamide] | 1.1% | 1.3% |  | 
12 | CCOc1cccc(-c2cc(C(=O)N3CCN(c4ccc(C(=O)NS(=O)(=O)CC56CC7CC(CC(C7)C5)C6)nn4)CC3)cc(C(F)(F)F)c2)c1 [B2A017-01, N-(1-Adamantylmethylsulfonyl)-6-[4-[3-(3-ethoxyphenyl)-5-(trifluoromethyl)benzoyl]piperazin-1-yl]pyridazine-3-carboxamide] |  |  | 7.5% | ASMS ratio (%) n = 1 (AS-MS, mixture library, Bcl-2): 18.6%
13 | CCOc1cccc(-c2csc(CN3CCN(c4ccc(C(=O)NS(=O)(=O)CCC(F)(F)F)cc4)CC3)c2)c1 [B2N067-01, 4-[4-[[4-(3-Ethoxyphenyl)thiophen-2-yl]methyl]piperazin-1-yl]-N-(3,3,3-trifluoropropylsulfonyl)benzamide] |  |  |  | ASMS ratio (%) (n = 1): 0.0%; ASMS ratio (%) (n = 2): 0.0%
14 | CCOc1cccc(-c2csc(C(=O)N3CCN(c4ccc(C(=O)N(C)CC56CC7CC(CC(C7)C5)C6)nn4)CC3)c2)c1 [B3A001-01, N-(1-Adamantylmethyl)-6-[4-[4-(3-ethoxyphenyl)thiophene-2-carbonyl]piperazin-1-yl]-N-methylpyridazine-3-carboxamide] | 0.0% | −8.4% |  | 
15 | CCOc1cncc(-c2cc(OC)c(CN3CCN(c4ccc(C(=O)NCC56CC7CC(CC(C7)C5)C6)nn4)CC3)c(OC)c2)c1 [B1A086-01, N-(1-Adamantylmethyl)-6-[4-[[4-(5-ethoxypyridin-3-yl)-2,6-dimethoxyphenyl]methyl]piperazin-1-yl]pyridazine-3-carboxamide] |  |  |  | ASMS ratio (%) n = 1 [2]: 0.0%; ASMS ratio (%) n = 2 [2]: −14.8%
16 | CCOc1cccc(-c2cc(CN3CCN(c4ccc(C(=O)NS(=O)(=O)c5ccc(NCCSc6ccccc6)c(C(F)(F)F)c5)cc4)CC3)cc(C(F)(F)F)c2)c1 [B2R061-01, 4-[4-[[3-(3-Ethoxyphenyl)-5-(trifluoromethyl)phenyl]methyl]piperazin-1-yl]-N-[4-(2-phenylsulfanylethylamino)-3-(trifluoromethyl)phenyl]sulfonylbenzamide] |  |  |  | ASMS ratio (%) (n = 1): 9.1%; ASMS ratio (%) (n = 2): −6.0%
17 | CCOc1cncc(-c2cnn(-c3cc(C(=O)N4CCN(c5ccc(C(=O)Nc6ccc(OC)cc6)cc5)CC4)cc(C(F)(F)F)c3)c2)c1 [B1O044-01, 4-[4-[3-[4-(5-Ethoxypyridin-3-yl)pyrazol-1-yl]-5-(trifluoromethyl)benzoyl]piperazin-1-yl]-N-(4-methoxyphenyl)benzamide] | 5.8% | 0.4% |  | 
18 | CCOc1cccc(-c2ccc(C(C)N3CCN(c4ccc(C(=O)N(CC)CC)cc4)CC3)c(F)c2)c1 (stereo not shown) [B4J099-01, 4-[4-[1-[4-(3-Ethoxyphenyl)-2-fluorophenyl]ethyl]piperazin-1-yl]-N,N-diethylbenzamide] |  |  | 0.0% | 
19 | CCOc1cncc(-c2ccc(CN3CCN(c4ccc(C(=O)NS(=O)(=O)CC56CC7CC(CC(C7)C5)C6)cc4)CC3)cc2C)c1 [B2A048-01, N-(1-Adamantylmethylsulfonyl)-4-[4-[[4-(5-ethoxypyridin-3-yl)-3-methylphenyl]methyl]piperazin-1-yl]benzamide] |  |  | 2.1% | ASMS ratio (%) n = 1 (AS-MS, mixture library, Bcl-2): 18.2%
20 | CCOc1cncc(-c2cc(CN3CCN(c4ccc(C(=O)NS(=O)(=O)CC56CC7CC(CC(C7)C5)C6)cc4)CC3)cc(C(F)(F)F)c2)c1 [B2A062-01, N-(1-Adamantylmethylsulfonyl)-4-[4-[[3-(5-ethoxypyridin-3-yl)-5-(trifluoromethyl)phenyl]methyl]piperazin-1-yl]benzamide] |  |  | 3.6% | ASMS ratio (%) n = 1 (AS-MS, mixture library, Bcl-2): −5.2%
21 | CCOc1cccc(-c2ccc(CN3CCN(c4ccc(C(=O)NS(=O)(=O)c5ccc(NCCSc6ccccc6)c([N+](=O)[O-])c5)nn4)CC3)c(CC)c2)c1 [B2Q075-01, 6-[4-[[4-(3-Ethoxyphenyl)-2-ethylphenyl]methyl]piperazin-1-yl]-N-[3-nitro-4-(2-phenylsulfanylethylamino)phenyl]sulfonylpyridazine-3-carboxamide] |  |  | 0.0% | ASMS ratio (%) n = 1 (AS-MS, mixture library, Bcl-2): 0.0%
22 | 4-[4-[4-(3-Ethoxyphenyl)-3-fluorobenzoyl]piperazin-1-yl]-N-propylbenzamide [B1M090-01] | 0.0% | 0.0% |  | 
23 | CCOc1cncc(-c2ccc(CN3CCN(c4ccc(C(=O)N(C)CC56CC7CC(CC(C7)C5)C6)nn4)CC3)c3ccccc23)c1 [B3A092-01, N-(1-Adamantylmethyl)-6-[4-[[4-(5-ethoxypyridin-3-yl)naphthalen-1-yl]methyl]piperazin-1-yl]-N-methylpyridazine-3-carboxamide] | 1.1% | −1.9% |  | 
24 | CCOc1cccc(-c2ccc(C(C)N3CCN(c4ccc(C(=O)Nc5ccc(OC)cc5)cc4)CC3)c(F)c2)c1 (stereo not shown) [B1O099-01, 4-[4-[1-[4-(3-Ethoxyphenyl)-2-fluorophenyl]ethyl]piperazin-1-yl]-N-(4-methoxyphenyl)benzamide] | 4.7% | 1.7% |  | 
25 | 6-[4-[[4-(3-Ethoxyphenyl)-2,6-dimethoxyphenyl]methyl]piperazin-1-yl]-N-propylpyridazine-3-carboxamide [B1M021-01] |  |  |  | ASMS ratio (%) n = 1 [2]: 0.0%; ASMS ratio (%) n = 2 [2]: 0.0%
